Data as given in patent US12006330B2, “Substituted macrocyclic compounds and related methods of treatment” (Alkermes, Inc., priority 2020, dated 2024).

Columns and labels:
Assay type in all cases: in vitro ADME
MDR1 = assay: MDCK-MDR1 permeability assay; conditions: dog, MDCK-MDR1, MDCK-MDR1 cells; for efflux ratio at 2 h, 3 μM: Papp B→A divided by Papp A→B, read-out: Efflux ratio (ER); for Papp A→B at 2 h, 3 μM: test compound 3 μM, 2 hours at 37 degrees C, apical to basolateral
Procedure: The bidirectional permeability (Apical to Basal and Basal to Apical directions) of test compounds in MDCK-MIDR1 cells were evaluated using MDCK-MIDR1 cells seeded in Solvo PreadyPort™ MDCK 96-well plate. Once the plate was received from ReadyCell (Barcelona, Spain), it was treated as per PreadyPort™ user's manual.
For the Apical to Basolateral (A→B) permeability, 80 μL of test compound (3 μM) co-dosed with LY (Lucifer Yellow) (100 μM) in HBSS (Hank's Balanced Salt Solution) assay buffer was added to the donor side (A) while 250 μL of HBSS buffer was added to the receiver side (B). For the Basolateral to Apical (B→A) permeability, 255 μL of test compound (3 μM) in HBSS assay buffer was added to the donor side (B) while 75 μL of HBSS buffer containing LY (100 μM) was added to the receiver side (A).
The plate was placed in an incubator set at 37 degrees C. After 10 minutes of pre-warming, 5 μL aliquot was taken from donor compartment and set aside as the dosing solution. The MDCK-MDR1 incubation plate was placed back into the incubator for 2 hours of incubation at 37 degrees C. After 2 hours of incubation, 25 μL and 5 μL aliquots were removed from the receiver and donor sides, respectively. To the 5 μL aliquots taken from the donor sides (before and after a 2-hour incubation) were diluted with 20 μL of the HBSS buffer. All samples were mixed with 150 μL with acetonitrile containing internal standard (IS) and 200 μL water, and analyzed by LC-MS/MS.
The apparent permeability (Papp) was calculated using the following formula: Papp=dQ/dt×1/A×C0 where: • dQ/dt: amount of translocated material over incubation time (nmol/s) • A: area of insert (0.14 cm^2 for PreadyPort™ MDR1-96) • C0: initial concentration of product applied in apical (A→B) or basal (B→A) compartment (nmol/mL)
The efflux ratio (ER) was measured by dividing the Papp (basolateral to apical direction) by Papp (apical to basolateral direction). It is a general measure of the involvement of active processes. An ER>2 is considered positive for active transport.
Percent recovery was measured using the following equation:
[formula] where: • VR: Volume of the receiver compartment (mL) • VD: Volume of the donor compartment (mL) • CN: Concentration of dosing solution (μM) collected after 10 minutes of incubation • CR^final: Receiver concentration at the end of the incubation (μM) • CD^final: Donor concentration at the end of the incubation (μM)
The data reported in Table 3 were obtained according to the MDCK-MDR1 permeability assay described above.

human hepatocytes = assay: Hepatocytes stability assay (human hepatocytes); conditions: human hepatocytes; scaled hepatic clearance divided by liver blood flow (well-stirred model, fu assumed unity)
Procedure: (§1) In vitro metabolic stability was assessed using cryopreserved hepatocytes from male Sprague Dawley rats and a pool of 50 mixed gender humans (BioIVT, Baltimore, MD). The incubation mixtures were prepared by mixing 250 μL of pre-warmed KHB (Krebs-Henseleit buffer) containing 2×10^6 cell/mL of hepatocytes with 250 μL of pre-warmed KHB buffer containing 2 μM of test compounds in a 48-well plate, giving a final concentration of 1 μM test compound (0.1% DMSO) and 1×10^6 cell/mL of hepatocytes. The reaction mixture was incubated at 37 degrees C. A 50 μL aliquot of incubation mixture was taken at time points (0, 15, 30, 60, 120 and 240 minutes) and transferred into a 96-well plate containing 300 μL ice-cold acetonitrile (containing 30 ng/mL of labetalol and 10 ng/mL of Naltrexone-d3 as internal standards) and immediately placed in ice to terminate the reaction. Samples were centrifuged, and supernatants were transferred into 96-well plates for liquid chromatography with tandem mass spectrometry (LC-MS/MS) analysis to monitor the depletion of the test compound.
(§2) Data was calculated as percent remaining by assuming zero-minute time point peak area ratio (analyte/IS) as 100% and dividing remaining time point peak area ratios by zero-minute time point peak area ratio. Data were fitted to a first-order decay model to determine half-life. From a plot of log (ln) peak area against time, the slope of the line was determined. Subsequently, half-life (T1/2) and intrinsic clearance (CLint) were calculated using the equations below: Elimination rate constant (k)=(−slope) Half-life (T1/2) min=0.693/k Intrinsic Clearance (CLint) (mL/min/million cells)=(V×0.693)/T1/2 V=incubation volume mL/number of cells The in vitro T1/2 was converted to in vitro intrinsic clearance (CLint,hep) in units of mL/min/kg using the formula shown below:
(§3) [formula] The in vitro intrinsic clearance (CLint,hep) was scaled to in vivo hepatic clearance (CL,hep) using the following equation which was adapted from a well-stirred model.
(§4) [formula] where Q is the liver blood flow and fu is the fraction unbound (assumed to be unity in this case). All parameters used in the calculation are shown below (Table 4).
(§5) The extraction ratio (ER) was calculated by dividing the hepatic clearance of a compound to the liver blood flow. The data reported in Table 5 were obtained according to the human hepatocytes stability assay described above.

[1] = Hepatocytes stability assay (human hepatocytes); conditions: both sexes, human, cryopreserved hepatocytes, cryopreserved human hepatocytes (pool of 50 mixed gender); 1 μM test compound; 1×10^6 cell/mL; 37 degrees C; read-out: CLint (μL/min/million cells)
Procedure: as §1, §2, §3, §4, §5

| SMILES | efflux ratio at 2 h, 3 μM (MDR1) | Papp A→B at 2 h, 3 μM (MDR1) [×10⁻⁶ cm/s] | Extraction Ratio (ER) (human hepatocytes) | hepatocyte CLint at 1 μM [1] [µL/min/1e6 cells] |
| --- | --- | --- | --- | --- |
| O=C1COc2ccccc2C2CCC(CC2)OC[C@H]2[C@@H](NS(=O)(=O)CCO)CCCN12 (stereo in doubt) [Compound 19] | > 100 | < 0.092 | 0.50 | 6.6 |
| Cc1c(Cl)ccc2c1[C@H]1CC[C@H](CC1)OCC1[C@@H](NS(=O)(=O)C(C)C)CCCN1C(=O)CO2 (stereo in doubt) [Compound 28] | 92 | 0.43 | 0.36 | 3.8 |
| O=C1COc2ccccc2[C@H]2CC[C@H](CC2)OCC2[C@@H](NS(=O)(=O)C3CCCC3)CCCN12 (stereo in doubt) [Compound 33] | 59 | 0.55 | 0.86 | 41 |
| Cc1cnc2c(c1)[C@H]1CC[C@H](CC1)OCC1[C@@H](NS(=O)(=O)C(C)C)CCCN1C(=O)CO2 (stereo in doubt) [Compound 34] | 67 | 0.44 | 0.52 | 7.1 |
| CC(C)S(=O)(=O)N[C@H]1CCCN2C(=O)COc3ncc(Cl)cc3[C@H]3CC[C@H](CC3)OCC12 (stereo in doubt) [Compound 35] | 81 | 0.35 | 0.70 | 16 |
| CN(C)CCS(=O)(=O)N[C@H]1CCCN2C(=O)COc3ccccc3[C@H]3CC[C@H](CC3)OCC12 (stereo in doubt) [Compound 39] | > 100 | < 0.086 | 0.75 | 20 |
| O=C1COc2ccccc2[C@H]2CC[C@H](CC2)OCC2[C@@H](NS(=O)(=O)C3CCC3)CCCN12 (stereo in doubt) [Compound 42] | 7.4 | 0.92 | 0.84 | 36 |
| O=C1COc2ccccc2[C@H]2CC[C@H](CC2)OCC2[C@@H](NS(=O)(=O)CC3CCC3)CCCN12 (stereo in doubt) [Compound 43] | 10 | 0.96 | 0.89 | 55 |
| O=C1COc2ccccc2[C@H]2CC[C@H](CC2)OCC2[C@@H](NS(=O)(=O)CC3CC3)CCCN12 (stereo in doubt) [Compound 48] | 60 | 0.56 | 0.86 | 41 |
| Cc1cccc2c1OCCN1CCC[C@H](NS(C)(=O)=O)C1CO[C@H]1CC[C@@H]2CC1 (stereo in doubt) [Compound 49] | 0.73 | 8.6 | 0.90 | 58 |
| Cc1ccc2c(c1)OCCN1CCC[C@H](NS(C)(=O)=O)C1CO[C@H]1CC[C@@H]2CC1 (stereo in doubt) [Compound 50] | 0.76 | 9.6 | 0.90 | 61 |
| O=S(=O)(N[C@H]1CCCN2CCOc3ccccc3[C@H]3CC[C@H](CC3)OCC12)C1CC1 (stereo in doubt) [Compound 51] | 1.1 | 7.8 | 0.86 | 42 |
| CC(C)S(=O)(=O)N[C@H]1CCCN2CCOc3ccccc3[C@H]3CC[C@H](CC3)OCC12 (stereo in doubt) [Compound 52] | 2.4 | 3.9 | 0.90 | 59 |
| CCS(=O)(=O)N[C@H]1CCCN2CCOc3ccccc3[C@H]3CC[C@H](CC3)OCC12 (stereo in doubt) [Compound 53] | 1.8 | 5.6 | 0.90 | 58 |
| Cc1ccc2c(c1)[C@H]1CC[C@H](CC1)OCC1[C@@H](NS(C)(=O)=O)CCCN1CCO2 (stereo in doubt) [Compound 54] | 2 | 5.2 | 0.85 | 38 |
| O=S(=O)(CC1CCC1)N[C@H]1CCCN2CCOc3ccccc3[C@H]3CC[C@H](CC3)OCC12 (stereo in doubt) [Compound 55] | 31 | 0.23 | 0.91 | 69 |

More lines, now with the values ahead:

| efflux ratio at 2 h, 3 μM (MDR1) | Papp A→B at 2 h, 3 μM (MDR1) [×10⁻⁶ cm/s] | Extraction Ratio (ER) (human hepatocytes) | hepatocyte CLint at 1 μM [1] [µL/min/1e6 cells] | SMILES |
| --- | --- | --- | --- | --- |
| > 100 | < 0.12 | 0.43 | 5.1 | CC(C)S(=O)(=O)N[C@H]1CCCN2C(=O)COc3ccc(Cl)cc3[C@H]3CC[C@H](CC3)OCC12 (stereo in doubt) [Compound 26] |
| > 100 | 0.32 | 0.37 | 3.9 | Cc1c(Cl)ccc2c1[C@H]1CC[C@H](CC1)OCC1[C@@H](NS(C)(=O)=O)CCCN1C(=O)CO2 (stereo in doubt) [Compound 31] |
| > 100 | 0.23 | 0.78 | 24 | Cc1cccc2c1OCC(=O)N1CCC[C@H](NS(C)(=O)=O)C1CO[C@H]1CC[C@@H]2CC1 (stereo in doubt) [Compound 37] |
| > 100 | < 0.18 | 0.49 | 6.4 | Cc1ccc2c(c1)OCC(=O)N1CCC[C@H](NS(C)(=O)=O)C1CO[C@H]1CC[C@@H]2CC1 (stereo in doubt) [Compound 40] |
| 7.8 | 2 | 0.87 | 46 | CC(C)(C)S(=O)(=O)N[C@H]1CCCN2C(=O)COc3ccccc3[C@H]3CC[C@H](CC3)OCC12 (stereo in doubt) [Compound 44] |
| 81 | 0.18 | 0.29 | 2.8 | CS(=O)(=O)N[C@H]1CCCN2C(=O)COc3ccc(C#N)cc3[C@H]3CC[C@H](CC3)OCC12 (stereo in doubt) [Compound 46] |
| > 100 | 0.19 | 0.39 | 4.3 | CS(=O)(=O)N[C@H]1CCCN2C(=O)COc3cc(C#N)ccc3[C@H]3CC[C@H](CC3)OCC12 (stereo in doubt) [Compound 47] |
